By EC50 is commonly meant the concentration at which the effect is half-maximal.

Molecules are shown by their SMILES.

In the experiment the target is T1, Rsanα1 nicotinic acetylcholine receptor α subunit (Rhipicephalus sanguineus, UniProt V9Z9T0).
T1 construct: full-length Rsanα1 (GenBank KF695387) expressed in Xenopus laevis oocytes; with chicken β2 nAChR subunit
Put plainly: two-electrode voltage clamp in Xenopus oocytes, concentration-response curve (agonist). The experiment is classed as cell-based. On the technique in general: Two-electrode voltage clamp is typically applied to oocytes expressing channels or transporters.

T1 sequence (V9Z9T0 45-525): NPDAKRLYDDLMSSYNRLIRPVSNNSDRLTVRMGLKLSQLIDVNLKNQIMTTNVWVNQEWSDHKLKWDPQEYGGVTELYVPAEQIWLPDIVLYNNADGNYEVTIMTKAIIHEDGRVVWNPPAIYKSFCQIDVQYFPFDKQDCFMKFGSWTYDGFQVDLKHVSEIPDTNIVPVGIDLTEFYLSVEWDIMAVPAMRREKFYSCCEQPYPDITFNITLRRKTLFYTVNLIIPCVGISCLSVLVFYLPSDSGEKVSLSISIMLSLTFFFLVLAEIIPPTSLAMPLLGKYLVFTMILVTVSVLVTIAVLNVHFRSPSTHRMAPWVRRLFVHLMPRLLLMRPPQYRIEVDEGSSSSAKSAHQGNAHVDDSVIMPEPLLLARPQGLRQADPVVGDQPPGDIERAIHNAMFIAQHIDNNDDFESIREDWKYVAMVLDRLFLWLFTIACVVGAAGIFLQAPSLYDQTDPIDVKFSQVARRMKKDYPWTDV
T1 sequence (P09484 19-491 partner): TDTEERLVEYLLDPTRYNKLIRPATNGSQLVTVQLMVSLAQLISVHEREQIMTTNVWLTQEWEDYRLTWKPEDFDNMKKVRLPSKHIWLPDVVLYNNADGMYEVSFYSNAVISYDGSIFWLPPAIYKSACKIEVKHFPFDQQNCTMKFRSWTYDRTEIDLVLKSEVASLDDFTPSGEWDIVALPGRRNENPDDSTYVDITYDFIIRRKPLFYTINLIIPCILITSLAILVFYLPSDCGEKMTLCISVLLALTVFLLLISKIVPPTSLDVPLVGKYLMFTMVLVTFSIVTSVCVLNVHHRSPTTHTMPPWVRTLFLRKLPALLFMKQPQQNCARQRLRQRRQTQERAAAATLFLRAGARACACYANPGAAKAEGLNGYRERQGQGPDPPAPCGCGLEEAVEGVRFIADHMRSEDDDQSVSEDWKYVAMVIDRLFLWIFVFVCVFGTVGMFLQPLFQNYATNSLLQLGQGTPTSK

Turning to `CC(=O)OCC[N+](C)(C)C` [acetylcholine], the half-maximal effective concentration (EC50) came to 10.7 µM.

The values above are taken from paper PMC4029082, “Functional characterisation of a nicotinic acetylcholine receptor α subunit from the brown dog tick, Rhipicephalus sanguineus^” (International Journal for Parasitology, 2014).
